In brackets after ≈: the same amount, converted by molar mass. Where a SMILES comes first, the peptide text is derived from it. [ ]: non-standard residue; d: D form. The star is where a group is joined. Phe(4-NO2) = N[C@@H](Cc1ccc([N+](=O)[O-])cc1)C(=O)O; Phe(4-NH2) = Nc1ccc(C[C@H](N)C(=O)O)cc1; 4Abz = Nc1ccc(C(=O)O)cc1; Propionyl = CCC(=O)*; Bz = O=C(c1ccccc1)*
Experiments:
[1] = tested on: 2.2.15 cells; assay: Cytotoxicity (TC50, median toxic concentration) in 2.2.15 cells; assay type: cell-based
Protocol: (§1) Cell control wells were simultaneously set up. […] IC50 and SI were calculated, respectively.

[2] = tested on: HBV DNA replication; assay: In vitro anti-HBV: inhibition of HBV DNA replication in 2.2.15 cells (dot blot); assay type: cell-based, hepatitis B virus; conditions: day 8, dot blot; for IC50: Hepatitis B virus, 192 h
Protocol: as §1

`COC(=O)[C@H](Cc1ccccc1)NC(=O)[C@H](Cc1ccccc1)NC(=O)c1ccc(F)cc1` [Example 03, methyl N-(N-4-fluoro-benzoyl-L-phenylalanyl)-L-phenylalaninate] showed a TC50 [1] of 17.81 mg/L (≈ 39.7 µM) and an IC50 [2] of 0.63 mg/L (≈ 1.4 µM).
Work on `COC(=O)[C@H](Cc1ccc(O)cc1)NC(=O)[C@H](Cc1ccccc1)NC(=O)c1ccccc1` [Example 04, methyl N-(N-benzoyl-L-phenylalanyl)-L-tyrosinate] (Bz-Phe-Tyr-OMe) yielded a TC50 [1] of 450.67 mg/L (≈ 1010 µM), an IC50 [2] of 51.8 mg/L (≈ 116 µM) and a melting point of 184 to 186 °C.
Work on `Cc1cccc(C(=O)N[C@@H](Cc2ccccc2)C(=O)N[C@H](CO)Cc2ccccc2)c1` [Example 05, N-(N-3-methyl-benzoyl-L-phenylalanyl)-L-phenylalaninol] yielded a TC50 [1] of 77.04 mg/L (≈ 185 µM), an IC50 [2] of 25.2 mg/L (≈ 60.5 µM) and a melting point of 177 to 178.5 °C.
With `O=C(N[C@@H](Cc1ccccc1)C(=O)N[C@H](CO)Cc1ccccc1)c1ccc(Cl)cc1` [Example 07, N-(N-4-chloro-benzoyl-L-phenylalanyl)-L-phenylalaninol] the TC50 [1] was 28.74 mg/L (≈ 65.8 µM), the IC50 [2] was 1.02 mg/L (≈ 2.33 µM) and the melting point was 211.5 to 214 °C.
For `COC(=O)[C@H](Cc1ccc(O)cc1)NC(=O)[C@H](Cc1ccc([N+](=O)[O-])cc1)NC(=O)c1ccccc1` [Example 14, methyl N-(N-benzoyl-4-nitro-L-phenylalanyl)-L-tyrosinate] (Bz-[Phe(4-NO2)]-Tyr-OMe), the TC50 [1] was 53.42 mg/L (≈ 109 µM), the IC50 [2] was 1.16 mg/L (≈ 2.36 µM) and the melting point was 200 to 202 °C.
For `O=C(N[C@@H](Cc1ccc(O)cc1)C(=O)N[C@H](CO)Cc1ccccc1)c1ccc(Cl)cc1` [Example 19, N-(N-4-chloro-benzoyl-L-tyrosyl)-L-phenylalaninol], the TC50 [1] was 587.06 mg/L (≈ 1300 µM) and the IC50 [2] was 103 mg/L (≈ 228 µM).
`COC(=O)[C@H](Cc1ccccc1)NC(=O)[C@H](Cc1ccc(O)cc1)NC(=O)c1ccc(Cl)cc1` [Example 20, methyl N-(N-4-chloro-benzoyl-L-tyrosyl)-L-phenylalaninate] showed a TC50 [1] of 198.46 mg/L (≈ 413 µM), an IC50 [2] of 48.5 mg/L (≈ 101 µM) and a melting point of 203.5 to 205 °C.
Work on `O=C(N[C@@H](Cc1ccc(O)cc1)C(=O)N[C@H](CO)Cc1ccccc1)c1ccccc1Cl` [Example 22, N-(N-2-chloro-benzoyl-L-tyrosyl)-L-phenylalaninol] yielded a TC50 [1] of 346.68 mg/L (≈ 765 µM), an IC50 [2] of 106 mg/L (≈ 234 µM) and a melting point of 168 to 169 °C.
Work on `COC(=O)[C@H](Cc1ccccc1)NC(=O)[C@H](Cc1ccc(O)cc1)NC(=O)c1ccccc1Cl` [Example 23, methyl N-(N-2-chloro-benzoyl-L-tyrosyl)-L-phenylalaninate] yielded a TC50 [1] of 240.38 mg/L (≈ 500 µM), an IC50 [2] of 52 mg/L (≈ 108 µM) and a melting point of 175.5 to 177.5 °C.
`O=C(N[C@@H](Cc1ccc(O)cc1)C(=O)N[C@H](CO)Cc1ccccc1)c1ccc(F)cc1` [Example 24, N-(N-4-fluoro-benzoyl-L-tyrosyl)-L-phenylalaninol] gave a TC50 [1] of 396.81 mg/L (≈ 909 µM), an IC50 [2] of 96 mg/L (≈ 220 µM) and a melting point of 194.5 to 195.5 °C.
`COC(=O)[C@H](Cc1ccccc1)NC(=O)[C@H](Cc1ccc(O)cc1)NC(=O)c1ccc(F)cc1` [Example 25, methyl N-(N-4-fluoro-benzoyl-L-tyrosyl)-L-phenylalaninate] gave a TC50 [1] of 574.76 mg/L (≈ 1240 µM), an IC50 [2] of 68.7 mg/L (≈ 148 µM) and a melting point of 186.5 to 189 °C.
In the case of `COC(=O)[C@H](Cc1ccc(O)cc1)NC(=O)[C@H](Cc1ccccc1)NC(=O)c1ccc(NC(C)=O)cc1` [Example 36, methyl N-[N-(4-acetamido-benzoyl)-L-phenylalanyl]-L-tyrosinate] (Ac-[4Abz]-Phe-Tyr-OMe), the TC50 [1] is reported as 388.03 mg/L (≈ 771 µM), the IC50 [2] is reported as 4.56 mg/L (≈ 9.06 µM) and the melting point is reported as 215.5 to 217 °C.
`CCC(=O)Nc1ccc(C(=O)N[C@@H](Cc2ccccc2)C(=O)N[C@@H](Cc2ccccc2)C(=O)OC)cc1` [Example 37, methyl N-[N-(4-propionamido-benzoyl)-L-phenylalanyl]-L-phenylalaninate] ({Propionyl-4Abz}-Phe-Phe-OMe) showed a TC50 [1] of 129.34 mg/L (≈ 258 µM), an IC50 [2] of 1.43 mg/L (≈ 2.85 µM) and a melting point of 225 to 227 °C.
In the case of `CCC(=O)Nc1ccc(C(=O)N[C@@H](Cc2ccccc2)C(=O)N[C@@H](Cc2ccc([N+](=O)[O-])cc2)C(=O)OC)cc1` [Example 38, methyl N-[N-(4-propionamido-benzoyl)-L-phenylalanyl]-4-nitro-L-phenylalaninate] ({Propionyl-4Abz}-Phe-[Phe(4-NO2)]-OMe), the TC50 [1] is reported as 80.13 mg/L (≈ 147 µM), the IC50 [2] is reported as 2.39 mg/L (≈ 4.37 µM) and the melting point is reported as 221 to 223 °C.
`CC(=O)Nc1ccc(C(=O)N[C@@H](Cc2ccccc2)C(=O)N[C@H](CO)Cc2ccccc2)cc1` [Example 39, N-[N-(4-acetamido-benzoyl)-L-phenylalanyl]-L-phenylalaninol] showed a TC50 [1] of 14.37 mg/L (≈ 31.3 µM), an IC50 [2] of 0.34 mg/L (≈ 0.74 µM) and a melting point of 193 to 195 °C.
With `CN(C)Cc1ccc(C(=O)N[C@@H](Cc2ccccc2)C(=O)N[C@H](CO)Cc2ccccc2)cc1` [Example 49, N-[N-(4-dimethylaminomethyl-benzoyl)-L-phenylalanyl]-L-phenylalaninol] the TC50 [1] was 86.23 mg/L (≈ 188 µM) and the IC50 [2] was 7.28 mg/L (≈ 15.8 µM).
In the case of `O=C(N[C@@H](Cc1ccccc1)C(=O)N[C@H](CO)Cc1ccccc1)c1ccc(CN2CCCC2)cc1` [Example 50, N-{N-[4-(1-pyrrolidyl)methyl-benzoyl]-L-phenylalanyl}-L-phenylalaninol], the TC50 [1] is reported as 64.15 mg/L (≈ 132 µM), the IC50 [2] is reported as 7.04 mg/L (≈ 14.5 µM) and the melting point is reported as 164 to 165 °C.
Molecule `CC(=O)Nc1ccc(C[C@H](NC(=O)c2ccccc2)C(=O)N[C@H](COC(C)=O)Cc2ccccc2)cc1` [Example 54, N-(N-benzoyl-4-acetamido-L-phenylalanyl)-O-acetyl-L-phenylalaninol] has a TC50 [1] of 43.11 mg/L (≈ 85.9 µM) and an IC50 [2] of 0.82 mg/L (≈ 1.63 µM).
`CC(=O)OC[C@H](Cc1ccccc1)NC(=O)[C@H](Cc1ccccc1)NC(=O)c1ccccc1` [Example 55, N-(N-benzoyl-L-phenylalanyl)-O-acetyl-L-phenylalaninol] showed a TC50 [1] of 53.42 mg/L (≈ 120 µM) and an IC50 [2] of 4.96 mg/L (≈ 11.2 µM).
In the case of `COC(=O)[C@H](Cc1ccc(N)cc1)NC(=O)[C@H](Cc1ccccc1)NC(=O)c1ccccc1.Cl` [Example 58, methyl N-(N-benzoyl-L-phenylalanyl)-4-amino-L-phenylalaninate hydrochloride] (Bz-Phe-[Phe(4-NH2)]-OMe), the TC50 [1] is reported as 28.74 mg/L and the melting point is reported as 173 to 175 °C.
In the case of `COC(=O)[C@H](Cc1ccc(NC(C)=O)cc1)NC(=O)[C@H](Cc1ccccc1)NC(=O)c1ccccc1` [Example 59, methyl N-(N-benzoyl-L-phenylalanyl)-4-acetamido-L-phenylalaninate] (Bz-Phe-[Phe(4-NH2)](Ac)-OMe), the TC50 [1] is reported as 258.69 mg/L (≈ 531 µM) and the melting point is reported as 228 to 229.5 °C.
`COC(=O)[C@H](Cc1ccccc1)NC(=O)[C@H](Cc1ccc(OC(C)=O)c(NC(C)=O)c1)NC(=O)c1ccccc1` [Example 63, methyl N-(N-benzoyl-O-acetyl-3-acetamido-L-tyrosyl)-L-phenylalaninate] gave a TC50 [1] of 358.02 mg/L (≈ 656 µM) and an IC50 [2] of 53.1 mg/L (≈ 97.4 µM).
In the case of `CCC(=O)Nc1ccc(C[C@H](NC(=O)[C@H](Cc2ccccc2)NC(=O)c2ccccc2)C(=O)OC)cc1` [Example 64, methyl N-(N-benzoyl-L-phenylalanyl)-4-propionamido-L-phenylalaninate] (Bz-Phe-[Phe(4-NH2)](Propionyl)-OMe), the TC50 [1] is reported as 58.54 mg/L (≈ 117 µM) and the melting point is reported as 244.5 to 246 °C.
`CC(=O)c1ccc(C[C@@H](CO)NC(=O)[C@H](Cc2ccccc2)NC(=O)c2ccccc2)cc1` [Example 69, N-(N-benzoyl-L-phenylalanyl)-4-acetyl-L-phenylalaninol] showed a TC50 [1] of 75.46 mg/L (≈ 170 µM) and a melting point of 235.5 to 238 °C.
In the case of `COC(=O)[C@H](Cc1ccc(OC)cc1)NC(=O)[C@H](Cc1ccccc1)NC(=O)c1ccccc1` [Example 71, methyl N-(N-benzoyl-L-phenylalanyl)-O-methyl-L-tyrosinate] (Bz-Phe-Tyr(Me)-OMe), the TC50 [1] is reported as 388.03 mg/L (≈ 843 µM) and the IC50 [2] is reported as 6.62 mg/L (≈ 14.4 µM).
For `CN(C)CCOc1ccc(C(=O)N[C@@H](Cc2ccccc2)C(=O)N[C@H](CO)Cc2ccccc2)cc1` [Example 77, N-[N-4-(2-dimethylamino-ethoxyl)-benzoyl-L-phenylalanyl]-L-phenylalaninol], the TC50 [1] was 160.25 mg/L (≈ 327 µM) and the “Inhibition of DNA Replication IC50” value [2] was 13.51 mg/L.
In the case of `COC(=O)[C@H](Cc1ccccc1)NC(=O)[C@H](Cc1ccccc1)NC(=O)c1ccc(OCCN(C)C)cc1` [Example 78, methyl N-[N-4-(2-dimethylamino-ethoxyl)-benzoyl-L-phenylalanyl]-L-phenylalaninate], the TC50 [1] is reported as 257.31 mg/L (≈ 497 µM) and the “Inhibition of DNA Replication IC50” value [2] is reported as 54.28 mg/L.
Molecule `COc1ccc(C[C@H](NC(=O)[C@H](Cc2ccccc2)NC(=O)c2ccccc2)C(=O)[O-])cc1.[Na+]` [Example 79, N-(N-benzoyl-L-phenylalanyl)-O-methyl-L-tyrosine sodium salt] (Bz-Phe-Tyr(Me)-OH) has a TC50 [1] of 86.23 mg/L and an IC50 [2] of 9.59 mg/L.
Molecule `O=C(O)CCC(=O)Nc1ccc(C[C@H](NC(=O)c2ccccc2)C(=O)N[C@H](CO)Cc2ccccc2)cc1` [Example 83, N-[N-benzoyl-4-(3-carboxyl-propionamido)-L-phenylalanyl]-L-phenylalaninol] has a TC50 [1] greater than 1000 mg/L and an IC50 [2] of 253 mg/L (≈ 488 µM).
`CN(C)c1ccc(C[C@H](NC(=O)c2ccccc2)C(=O)N[C@H](CO)Cc2ccccc2)cc1` [Example 84, N-(N-benzoyl-4-dimethylamino-L-phenylalanyl)-L-phenylalaninol] showed a TC50 [1] of 86.23 mg/L (≈ 194 µM) and an IC50 [2] of 1.44 mg/L (≈ 3.23 µM).
With `O=C(N[C@@H](Cc1ccccc1)C(=O)N[C@@H](Cc1ccccc1)C(=O)O)c1ccccc1` [Example 86, N-(N-benzoyl-L-phenylalanyl)-L-phenylalanine] (Bz-Phe-Phe-OH) the TC50 [1] was 130.56 mg/L (≈ 313 µM) and the IC50 [2] was 10.6 mg/L (≈ 25.4 µM).
In the case of `O=C(N[C@@H](Cc1ccc([N+](=O)[O-])cc1)C(=O)N[C@@H](Cc1ccccc1)C(=O)O)c1ccccc1` [Example 88, N-(N-benzoyl-4-nitro-L-phenylalanyl)-L-phenylalanine] (Bz-[Phe(4-NO2)]-Phe-OH), the TC50 [1] is reported as 388.03 mg/L (≈ 841 µM) and the IC50 [2] is reported as 25 mg/L (≈ 54.2 µM).

— patent US9023809B2, “Phenylalanine dipeptide derivatives, compositions and use thereof” (The Key Laboratory of Chemistry For Natural Products of …, priority 2008, dated 2015)
